From article PMC7270110, “Labeled oxytocin administered via the intranasal route reaches the brain in rhesus macaques” (Nature Communications, 2020)

Test: Brain tissue concentration of endogenous OT (d0OT) by LC-MS/MS (terminal experiment)
Format: in vivo, rhesus macaques (Macaca mulatta)
Conditions: for BRAIN OT concentration (endogenous): LC-MS/MS; for Concentrations of endogenous brain oxytocin (OT): molarity calculated for extracellular fluid volume
Experimental: Monkeys were divided into three groups, each with two monkeys; each group received the following in a terminal study at the 5th week: Group 1 (Monkeys ID# 1 and ID# 5) received 40 IU of d5OT IN, Group 2 received 80 IU of d5OT IN (Monkeys ID# 2 and ID# 4) and Group 3 received 80 IU of d5OT IV (Monkeys ID# 3 and ID# 6). Animals were perfused on average, 140 ± 7 (mean ± SD) min after d5OT administration (range = 135–149 min) (Table 4). Plasma and CSF were drawn just before administration of d5OT, at the midpoint between d5OT administration and perfusion (~60 min post-d5OT administration), and just before perfusion.
Brain tissue distribution of d5OT, as well as the endogenous concentrations of OT (d0OT), were measured in the following 12 brain regions: cerebellum, brainstem, striatum, amygdala, thalamus, visual cortex, insular cortex, hypothalamus, hippocampus, mPFC (Brodmann areas 32,25,24), dPFC (Brodmann areas 46,9,10), and OFC (Brodmann areas 14,13,12) (Tables 1, 2 and 3).
Brain tissue sample preparation: Samples (~1.5 mg per sample) were individually weighed and placed into 12 mm × 75 mm glass tubes containing 1.5 ml ice-cold 1 M acetic acid and 30 µl of OT-d10 internal standard. Tissues were homogenized on ice and the resulting homogenates were poured into individual 15 ml polystyrene tubes. The original glass tube was rinsed with 1 ml acetonitrile, and this rinse was added to the appropriate 15 ml polystyrene tube containing the homogenate. After all homogenizations were complete, 3 ml acetonitrile was added to each tube and extraction proceeded, as described for the plasma and CSF samples.
LC–MS/MS instrument parameters: Microtiter plates were prepared, as described above, and loaded onto a SIL-30ACMP autosampler set at 4 °C (Shimadzu). Forty microliters of each standard, QC or sample were injected onto an ACE Excel 2 C18-PFP 50 mm × 2.1 mm column (Advanced Chromatography Technologies, LTD, Aberdeen, Scotland) at 50 °C using reversed-phase chromatography. Mobile phase A was 0.1% formic acid in water and mobile phase B was 0.1% formic acid in ACN. The LC time gradient was created using two Nexera LC-30AD pumps (Shimadzu) running at 0.5 ml/min. Chromatography for serum and CSF samples began at 10% B and ended at 16% B at 3.6 min. One minute at 60% B was then required to wash the column, and the pumps re-equilibrated at 10% B for an additional 1.7 min (total run time ~6 min). Outside of the 1.55–3.55 min window during which OT eluted, a divert valve sent the LC effluent to waste.
Heated electrospray […] in positive mode, with scheduled multiple reaction monitoring (MRM) on a Shimadzu LCMS-8050, was used for detection of OT. The interface temperature was 270 °C and heat block temperature was 170 °C. Gas was supplied by a Peak Genius 1051 nitrogen and air generator (Peak Scientific, Inchinnan, UK). Nitrogen gas was used for nebulizing (1 L/min) and drying (8.2 L/min), while air was used for heating (7.8 L/min). A capillary B needle was used in the interface. Needle protrusion was set to 1.25 mm and probe distance was set to 1.0 mm; both were determined empirically. Argon (Airgas, Radnor, PA) was used for the collision-induced dissociation at 330 kPa. The MS/MS conditions for OT were optimized using the automated MRM optimization procedure in LabSolutions software (Shimadzu). We collected two MRM transitions each, for d0OT (1007.40 > 723.40 and 1007.40 > 285.30), d5OT (1012.00 > 723.40 and 1012.00 > 290.35), and d10OT (1017.70 > 723.35 and 1017.70 > 295.40); the first transition listed in each case was used for quantitation, while the second was used as a reference ion. Retention times for d0OT, d5OT, and d10OT were 3.290, 3.270, and 3.253 min, respectively.
The sensitivities of each assay within the method were determined by the lowest and highest concentration calibrators in the calibration curve. The lower limit of quantitation (LLOQ) for d0OT was 10 pg/ml (4 pg/col); the LLOQ for d5OT was 100 pg/ml (40 pg/col). […]

## CC[C@H](C)[C@@H]1NC(=O)[C@H](Cc2ccc(O)cc2)NC(=O)[C@@H](N)CSSC[C@@H](C(=O)N2CCC[C@H]2C(=O)N[C@@H](CC(C)C)C(=O)NCC(N)=O)NC(=O)[C@H](CC(N)=O)NC(=O)[C@H](CCC(N)=O)NC1=O [OT, oxytocin]
Insular Cortex, after d5OT 40 IU IN, monkey #5 (F), perfused 138 min post-dose
  BRAIN OT concentration (endogenous): 0.30 pg/mg
Insular Cortex, after d5OT 80 IU IN, monkey #4 (M), perfused 135 min post-dose
  BRAIN OT concentration (endogenous): 0.06 pg/mg
Insular Cortex, after d5OT 80 IU IV, monkey #3 (F), perfused 149 min post-dose
  BRAIN OT concentration (endogenous): 0.16 pg/mg
OFC, 40 IN, monkey #1 (F)
  Concentrations of endogenous brain oxytocin (OT): 1e-09 M
OFC, 40 IN, monkey #5 (F)
  Concentrations of endogenous brain oxytocin (OT): 5e-09 M
OFC, 80 IN, monkey #2 (M)
  Concentrations of endogenous brain oxytocin (OT): 2.2e-09 M
OFC, 80 IN, monkey #4 (M)
  Concentrations of endogenous brain oxytocin (OT): 9e-09 M
OFC, 80 IV, monkey #3 (F)
  Concentrations of endogenous brain oxytocin (OT): 2e-09 M
OFC, after d5OT 40 IU IN, monkey #1 (F), perfused 148 min post-dose
  BRAIN OT concentration (endogenous): 0.22 pg/mg
OFC, after d5OT 40 IU IN, monkey #5 (F), perfused 138 min post-dose
  BRAIN OT concentration (endogenous): 0.96 pg/mg
OFC, after d5OT 80 IU IN, monkey #2 (M), perfused 136 min post-dose
  BRAIN OT concentration (endogenous): 0.40 pg/mg
OFC, after d5OT 80 IU IN, monkey #4 (M), perfused 135 min post-dose
  BRAIN OT concentration (endogenous): 1.59 pg/mg
OFC, after d5OT 80 IU IV, monkey #3 (F), perfused 149 min post-dose
  BRAIN OT concentration (endogenous): 0.44 pg/mg
Striatum, 40 IN, monkey #1 (F)
  Concentrations of endogenous brain oxytocin (OT): 3e-09 M
Striatum, 40 IN, monkey #5 (F)
  Concentrations of endogenous brain oxytocin (OT): 7e-09 M
Striatum, 80 IN, monkey #2 (M)
  Concentrations of endogenous brain oxytocin (OT): 9e-09 M
Striatum, 80 IN, monkey #4 (M)
  Concentrations of endogenous brain oxytocin (OT): 9.7e-08 M
Striatum, 80 IV, monkey #3 (F)
  Concentrations of endogenous brain oxytocin (OT): 7.9e-08 M
Striatum, 80 IV, monkey #6 (F)
  Concentrations of endogenous brain oxytocin (OT): 8.6e-08 M
Striatum, after d5OT 40 IU IN, monkey #1 (F), perfused 148 min post-dose
  BRAIN OT concentration (endogenous): 0.63 pg/mg
Striatum, after d5OT 40 IU IN, monkey #5 (F), perfused 138 min post-dose
  BRAIN OT concentration (endogenous): 1.20 pg/mg
Striatum, after d5OT 80 IU IN, monkey #2 (M), perfused 136 min post-dose
  BRAIN OT concentration (endogenous): 1.58 pg/mg
Striatum, after d5OT 80 IU IN, monkey #4 (M), perfused 135 min post-dose
  BRAIN OT concentration (endogenous): 17.81 pg/mg
Striatum, after d5OT 80 IU IV, monkey #3 (F), perfused 149 min post-dose
  BRAIN OT concentration (endogenous): 14.45 pg/mg
Striatum, after d5OT 80 IU IV, monkey #6 (F), perfused 135 min post-dose
  BRAIN OT concentration (endogenous): 15.82 pg/mg
Thalamus, 40 IN, monkey #1 (F)
  Concentrations of endogenous brain oxytocin (OT): 2.4e-08 M
Thalamus, 40 IN, monkey #5 (F)
  Concentrations of endogenous brain oxytocin (OT): 4e-08 M
Thalamus, 80 IN, monkey #2 (M)
  Concentrations of endogenous brain oxytocin (OT): 6e-09 M
Thalamus, 80 IN, monkey #4 (M)
  Concentrations of endogenous brain oxytocin (OT): 1.7e-08 M
Thalamus, 80 IV, monkey #3 (F)
  Concentrations of endogenous brain oxytocin (OT): 2.1e-08 M
Thalamus, 80 IV, monkey #6 (F)
  Concentrations of endogenous brain oxytocin (OT): 1.55e-07 M
Thalamus, after d5OT 40 IU IN, monkey #1 (F), perfused 148 min post-dose
  BRAIN OT concentration (endogenous): 4.39 pg/mg
Thalamus, after d5OT 40 IU IN, monkey #5 (F), perfused 138 min post-dose
  BRAIN OT concentration (endogenous): 7.31 pg/mg
Thalamus, after d5OT 80 IU IN, monkey #2 (M), perfused 136 min post-dose
  BRAIN OT concentration (endogenous): 1.02 pg/mg
Thalamus, after d5OT 80 IU IN, monkey #4 (M), perfused 135 min post-dose
  BRAIN OT concentration (endogenous): 3.09 pg/mg
Thalamus, after d5OT 80 IU IV, monkey #3 (F), perfused 149 min post-dose
  BRAIN OT concentration (endogenous): 3.85 pg/mg
Thalamus, after d5OT 80 IU IV, monkey #6 (F), perfused 135 min post-dose
  BRAIN OT concentration (endogenous): 28.34 pg/mg
dPFC, 40 IN, monkey #5 (F)
  Concentrations of endogenous brain oxytocin (OT): 1e-09 M
dPFC, 80 IN, monkey #4 (M)
  Concentrations of endogenous brain oxytocin (OT): 1e-09 M
dPFC, 80 IV, monkey #3 (F)
  Concentrations of endogenous brain oxytocin (OT): 2e-09 M
dPFC, after d5OT 40 IU IN, monkey #5 (F), perfused 138 min post-dose
  BRAIN OT concentration (endogenous): 0.16 pg/mg
dPFC, after d5OT 80 IU IN, monkey #4 (M), perfused 135 min post-dose
  BRAIN OT concentration (endogenous): 0.20 pg/mg
dPFC, after d5OT 80 IU IV, monkey #3 (F), perfused 149 min post-dose
  BRAIN OT concentration (endogenous): 0.27 pg/mg
mPFC, after d5OT 40 IU IN, monkey #1 (F), perfused 148 min post-dose
  BRAIN OT concentration (endogenous): 0.86 pg/mg
mPFC, after d5OT 40 IU IN, monkey #5 (F), perfused 138 min post-dose
  BRAIN OT concentration (endogenous): 0.88 pg/mg
mPFC, after d5OT 80 IU IN, monkey #4 (M), perfused 135 min post-dose
  BRAIN OT concentration (endogenous): 0.45 pg/mg
